Among the data in patent publication US20260109715A1, “IMIDAZOPYRIDINE DERIVATIVES WITH BICYCLIC STRUCTURE” (PUBLIC UNIVERSITY CORPORATION YOKOHAMA CITY UNIVERSITY, priority 2022, published 2026) are IC50 and EC50 values, retold here.

One assay has as its target human SMG1 enzyme (Homo sapiens, UniProt Q96Q15). Kind of assay: Measurement of SMG1 kinase activity (ADP-Glo Kinase Assay). The format is biochemical. Conditions: purified human SMG1 enzyme 5 nM, Upf1 peptide substrate, ATP 4 μM; qAC50 synonymous with IC50; read-out: Test Example 1 ADP-Glo IC50. From the text:
The SMG1 kinase inhibitory activity of a compound of the present invention or a pharmaceutically acceptable salt thereof can be measured, for example, by the method described below. Using purified human SMG1 protein and a substrate peptide as materials, the kinase activity can be measured by the ADP-Glo Kinase Assay; the SMG1 kinase inhibitory activity of a test substance can be evaluated by comparing the kinase activity in the presence and absence of the test substance.
The reaction was performed by the ADP-Glo Kinase Assay (Promega, catalog number V9102) using a 384-well plate under the conditions of an assay buffer (100 mM HEPES (pH 7.5), 50 mM NaCl, 10 mM MnCl2, 0.01% BSA, 0.1% Tween 20.5 mM TCEP). After incubating a test substance (DMSO solution; final DMSO concentration: 1%) and purified human SMG1 enzyme (Genes Dev. 2011 Jan. 15; 25(2): 153-164, produced by Daiichi Sankyo RD Novare Co., Ltd.; final concentration: 5 nM) at room temperature for 15 minutes, a substrate, Upf1 peptide (Biotin-(PEG8) QIDVALSQDSTYQG, produced by Eurofins genomics; final concentration: 8 μg/mL), and ATP (Promega: 4 μM) were added, and the mixture was reacted at room temperature for 60 minutes (see Non-Patent Literature R. Melero, et al., Structure Volume 22, Issue 8, 5 Aug. 2014, Pages 1105-1119 for the Upf1 peptide). ADP-Glo Reagent was added, and the mixture was reacted at room temperature for 40 minutes. Kinase Detection Reagent was added, and the mixture was reacted for another 30 minutes. The luminescence intensity was measured using EnVision (PerkinElmer).
The activity value (%) of the test substance-added well was calculated from the following formula, where the average luminescence intensity of the DMSO-added well was 0% and the average luminescence intensity of the SMG1 enzyme-free well was −100%.
The qAC50 (compound concentration showing 50% inhibition, synonymous with IC50) of the test substance was calculated using the activity value (%) at each concentration by Smart fit of Screener (Genedata). Smart fit is a general 4-parameter logistic regression model.
(In general: In ADP-Glo the light output rises with the ADP produced.)

Assay [1] has as its system Snhg1 transcript (NMD target gene) in EMT6 murine breast cancer cell line. In words: Measurement of NMD inhibitory activity in cells (increase in Snhg1 transcript, real-time PCR). The arrangement: species or system mouse. Conditions: Mus musculus, 6 hours treatment, concentration giving 1/2 of maximum Snhg1 fold change of positive control, read-out: Test Example 2 Cell-based Snhg1 EC50. The protocol:
The NMD inhibitory activity of a compound of the present invention or a pharmaceutically acceptable salt thereof in cells can be measured, for example, by the method described below. EMT6 murine breast cancer cell line is treated with a test substance in vitro for 6 hours, and the increase in the transcript of Snhg1, a known NMD target gene, is quantified as an indicator of NMD inhibition. Quantification is performed by real-time PCR.
NMD inhibitory activity was measured by treating EMT6 murine breast cancer cell line (ATCC) with a test substance and quantifying the increase in the transcript of Snhg1, an NMD target gene (see F. Usui, et al., Scientific Reports volume 9, Article number: 1279 (2019) for the NMD target gene). That is, EMT6 cells were suspended in Waymouth's medium (Gibco, 15% FBS) and seeded in a 96-well plate at 2×10^4 cells/well. The cells were cultured for 1 day. The next day, serially diluted test substance (DMSO solution, final DMSO concentration: 2%) was added. After culturing for 6 hours, the supernatant was removed, and RNA was extracted using the RNeasy 96 kit (QIAGEN, 74182). After synthesizing cDNA using the High Capacity cDNA Reverse Transcription kit (Applied Biosystems, 4368813), the cDNA was mixed with PrimeTime Gene Expression Master Mix (Integrated DNA Technologies) and various probes, and gene expression was quantified using QuantStudio 6 Flex (Thermo Fisher Scientific Inc.). For the probe for the Snhg1 gene, which is an NMD target, Mm.PT.58.44039547 (FAM)(Integrated DNA Technologies) was used, and for the probe for the Tbp gene, which is an endogenous control, Mm00446973_m1 Tbp (VIC-PL) (Applied Biosystems) was used. The relative quantification of Snhg1 transcripts was calculated by the ΔΔCT method, using Thp as an endogenous control and setting the expression level of Snhg1 in untreated wells to 1.
A known NMD inhibitory compound (pyrimidine derivative Example 11i, Bioorg Med Chem Lett. 2012, 22(21), 6636-41) was used as a positive control drug for NMD inhibition. The NMD inhibitory activity of the test substance-added well was calculated as follows: the maximum fold change in Sngh1 expression in the positive control drug-added well relative to that in the untreated well was defined as the maximum NMD inhibitory activity, and the EC50 (compound concentration showing 50%/activity) of the test substance showing a ½-fold change was calculated by the GROWTH function of Microsoft Excel.

pEC50, pIC50: −log10 of the molar value. Structures can show the parent of a compound that is named as a salt.

Sequence of human SMG1 enzyme (Q96Q15 whole entry): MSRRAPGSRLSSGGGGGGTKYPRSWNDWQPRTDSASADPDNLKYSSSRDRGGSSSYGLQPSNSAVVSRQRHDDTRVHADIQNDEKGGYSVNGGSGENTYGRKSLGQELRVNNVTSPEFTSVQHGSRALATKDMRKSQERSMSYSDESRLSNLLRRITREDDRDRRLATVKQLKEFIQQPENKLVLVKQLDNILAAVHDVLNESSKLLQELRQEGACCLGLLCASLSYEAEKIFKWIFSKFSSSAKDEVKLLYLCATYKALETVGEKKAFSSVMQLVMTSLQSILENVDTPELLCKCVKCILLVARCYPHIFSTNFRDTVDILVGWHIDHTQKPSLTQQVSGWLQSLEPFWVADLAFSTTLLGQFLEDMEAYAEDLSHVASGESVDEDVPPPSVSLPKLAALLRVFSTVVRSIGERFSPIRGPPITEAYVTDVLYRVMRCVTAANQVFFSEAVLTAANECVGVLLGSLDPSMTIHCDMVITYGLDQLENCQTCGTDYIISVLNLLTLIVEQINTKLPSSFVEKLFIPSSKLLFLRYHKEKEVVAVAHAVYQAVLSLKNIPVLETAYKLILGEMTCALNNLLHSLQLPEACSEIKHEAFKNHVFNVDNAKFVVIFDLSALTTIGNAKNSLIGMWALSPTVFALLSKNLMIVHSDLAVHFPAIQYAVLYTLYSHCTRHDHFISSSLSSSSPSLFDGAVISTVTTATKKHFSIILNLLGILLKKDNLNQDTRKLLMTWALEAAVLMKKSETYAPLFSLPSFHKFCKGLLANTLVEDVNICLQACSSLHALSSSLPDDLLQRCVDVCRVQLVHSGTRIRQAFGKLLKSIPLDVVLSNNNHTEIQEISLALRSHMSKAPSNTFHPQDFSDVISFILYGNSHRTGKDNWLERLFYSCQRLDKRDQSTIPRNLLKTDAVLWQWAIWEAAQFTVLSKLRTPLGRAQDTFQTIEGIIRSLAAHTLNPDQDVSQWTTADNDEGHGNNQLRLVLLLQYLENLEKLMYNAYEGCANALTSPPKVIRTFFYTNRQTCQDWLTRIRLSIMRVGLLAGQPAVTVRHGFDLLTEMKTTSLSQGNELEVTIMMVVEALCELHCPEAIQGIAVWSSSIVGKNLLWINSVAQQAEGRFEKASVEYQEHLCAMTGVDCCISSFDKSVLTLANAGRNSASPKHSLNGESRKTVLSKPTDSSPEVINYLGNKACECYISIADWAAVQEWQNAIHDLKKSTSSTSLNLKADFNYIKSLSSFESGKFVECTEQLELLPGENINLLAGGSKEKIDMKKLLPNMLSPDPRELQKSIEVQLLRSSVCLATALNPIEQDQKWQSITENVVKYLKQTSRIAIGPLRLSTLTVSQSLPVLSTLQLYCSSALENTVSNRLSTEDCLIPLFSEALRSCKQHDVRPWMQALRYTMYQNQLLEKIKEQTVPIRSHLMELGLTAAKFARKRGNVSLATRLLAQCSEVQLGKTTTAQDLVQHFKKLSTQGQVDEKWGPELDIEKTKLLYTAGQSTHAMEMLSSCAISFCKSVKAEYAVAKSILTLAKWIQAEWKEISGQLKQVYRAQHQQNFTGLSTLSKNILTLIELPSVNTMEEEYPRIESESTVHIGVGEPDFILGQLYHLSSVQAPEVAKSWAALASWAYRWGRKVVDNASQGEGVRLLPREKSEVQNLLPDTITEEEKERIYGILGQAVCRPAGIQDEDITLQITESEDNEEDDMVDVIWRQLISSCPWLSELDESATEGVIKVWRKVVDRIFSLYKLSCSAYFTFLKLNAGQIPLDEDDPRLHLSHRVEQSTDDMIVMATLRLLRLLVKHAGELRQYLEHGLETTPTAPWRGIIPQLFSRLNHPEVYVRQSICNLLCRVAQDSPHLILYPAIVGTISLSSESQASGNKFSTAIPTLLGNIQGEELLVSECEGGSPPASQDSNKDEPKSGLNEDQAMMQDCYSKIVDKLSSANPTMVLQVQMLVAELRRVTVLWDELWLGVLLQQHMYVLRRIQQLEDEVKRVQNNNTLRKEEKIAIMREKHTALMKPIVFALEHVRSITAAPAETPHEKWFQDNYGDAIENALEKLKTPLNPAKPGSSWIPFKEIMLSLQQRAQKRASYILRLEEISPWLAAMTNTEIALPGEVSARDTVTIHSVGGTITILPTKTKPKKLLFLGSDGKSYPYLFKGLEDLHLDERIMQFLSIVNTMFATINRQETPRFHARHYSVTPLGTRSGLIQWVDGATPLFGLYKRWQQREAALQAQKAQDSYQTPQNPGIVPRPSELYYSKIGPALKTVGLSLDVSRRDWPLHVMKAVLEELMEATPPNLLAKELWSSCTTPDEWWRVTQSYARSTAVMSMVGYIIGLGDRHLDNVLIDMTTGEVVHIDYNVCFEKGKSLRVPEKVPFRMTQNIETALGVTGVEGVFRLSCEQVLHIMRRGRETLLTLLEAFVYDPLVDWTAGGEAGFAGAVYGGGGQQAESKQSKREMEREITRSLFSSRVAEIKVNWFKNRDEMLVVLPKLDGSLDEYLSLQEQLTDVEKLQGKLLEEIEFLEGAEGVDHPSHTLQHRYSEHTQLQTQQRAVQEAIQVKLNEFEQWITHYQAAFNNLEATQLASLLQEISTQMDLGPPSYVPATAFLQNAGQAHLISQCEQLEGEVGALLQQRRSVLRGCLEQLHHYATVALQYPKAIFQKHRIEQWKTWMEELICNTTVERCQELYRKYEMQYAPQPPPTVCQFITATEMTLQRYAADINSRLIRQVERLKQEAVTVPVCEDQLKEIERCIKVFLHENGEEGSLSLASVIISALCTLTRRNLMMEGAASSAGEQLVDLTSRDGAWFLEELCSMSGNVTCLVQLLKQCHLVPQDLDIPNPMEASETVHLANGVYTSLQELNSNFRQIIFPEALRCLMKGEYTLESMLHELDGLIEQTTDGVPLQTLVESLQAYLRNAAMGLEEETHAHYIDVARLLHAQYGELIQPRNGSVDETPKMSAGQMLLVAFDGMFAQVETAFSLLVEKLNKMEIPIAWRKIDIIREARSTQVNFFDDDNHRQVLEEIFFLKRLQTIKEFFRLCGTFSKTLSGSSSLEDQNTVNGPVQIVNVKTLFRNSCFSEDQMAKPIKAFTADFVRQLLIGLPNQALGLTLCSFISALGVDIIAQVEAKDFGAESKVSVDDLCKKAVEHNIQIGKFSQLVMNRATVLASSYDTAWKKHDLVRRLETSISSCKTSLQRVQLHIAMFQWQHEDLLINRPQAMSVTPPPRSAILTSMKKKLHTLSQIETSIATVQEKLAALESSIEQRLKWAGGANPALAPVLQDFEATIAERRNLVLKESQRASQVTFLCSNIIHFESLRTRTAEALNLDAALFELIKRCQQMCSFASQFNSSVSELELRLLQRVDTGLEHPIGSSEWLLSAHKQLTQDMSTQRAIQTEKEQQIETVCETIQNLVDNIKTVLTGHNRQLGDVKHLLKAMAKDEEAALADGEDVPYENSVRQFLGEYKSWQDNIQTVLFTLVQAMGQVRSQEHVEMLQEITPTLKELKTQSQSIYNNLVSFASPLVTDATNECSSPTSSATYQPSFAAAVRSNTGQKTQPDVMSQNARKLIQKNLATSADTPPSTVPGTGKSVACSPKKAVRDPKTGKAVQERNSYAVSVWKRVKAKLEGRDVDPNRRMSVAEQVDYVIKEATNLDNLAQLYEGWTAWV

With `[2H]C([2H])([2H])Oc1ccccc1-c1nccc2[nH]c(=O)c(-c3nc4c(N5CCNC(=O)C5)nc(Cl)cc4[nH]3)cc12` [Example 43, 3-[6-chloro-4-(3-oxopiperazin-1-yl)-1H-imidazo[4,5-c]pyridin-2-yl]-5-{2-[(^2H3)methyloxy]phenyl}-1,6-naphthyridin-2(1H)-one], the pIC50 at human SMG1 enzyme was 9.01. For the same compound, in assay [1], the pEC50 is 7.62.

In the case of `[2H]C([2H])([2H])Oc1ccccc1-c1nccc2[nH]c(=O)c(-c3nc4c(N=S(C)(C)=O)nc(Cl)cc4[nH]3)cc12` [Example 44, 3-(6-chloro-4-{[dimethyl(oxide)-A6-sulfanylidene]amino}-1H-imidazo[4,5-c]pyridin-2-yl)-5-{2-[(^2H3)methyloxy]phenyl}-1,6-naphthyridin-2(1H)-one], the pIC50 at human SMG1 enzyme is 9.30. Moreover, in assay [1], the pEC50 was 7.27.

With `Cc1nc(Cl)cc2[nH]c(-c3cc4c(-c5c(F)cccc5C#N)nccc4[nH]c3=O)nc12` [Example 45, 2-[3-(6-chloro-4-methyl-1H-imidazo[4,5-c]pyridin-2-yl)-2-oxo-1,2-dihydro-1,6-naphthyridin-5-yl]-3-fluorobenzonitrile], the pIC50 at human SMG1 enzyme was 9.10. Besides, the pEC50 in assay [1] is 7.96.

In the case of `CC(C)(O)c1cccc(-c2nccc3[nH]c(=O)c(-c4nc5cnc(Cl)cc5[nH]4)cc23)c1` [Example 46, 3-(6-chloro-1H-imidazo[4,5-c]pyridin-2-yl)-5-[3-(2-hydroxypropan-2-yl)phenyl]-1,6-naphthyridin-2(1H)-one], on human SMG1 enzyme, the pIC50 is 8.74. For the same compound, in assay [1], the negative logarithm of the EC50 (pEC50) is 6.94.

As to `O=c1[nH]c2ccnc(-c3cccc(CN4C5CCC4COC5)c3)c2cc1-c1nc2cnc(Cl)cc2[nH]1` [Example 47, 3-(6-chloro-1H-imidazo[4,5-c]pyridin-2-yl)-5-[3-(3-oxa-8-azabicyclo[3.2.1]octan-8-ylmethyl)phenyl]-1,6-naphthyridin-2(1H)-one], the pIC50 on human SMG1 enzyme was 8.68. The pEC50 in assay [1] is 6.93.

On to `Cc1ccccc1-c1nccc2[nH]c(=O)c(-c3nc4c(N5CCCC(N)C5)nc(Cl)cc4[nH]3)cc12` (centres unmarked) [Example 56, 3-[4-(3-aminopiperidin-1-yl)-6-chloro-1H-imidazo[4,5-c]pyridin-2-yl]-5-(2-methylphenyl)-1,6-naphthyridin-2(1H)-one hydrochloride], for which, at human SMG1 enzyme, the negative-log IC50 (pIC50) is 9.28. Further, the pEC50 in assay [1] was 8.92.

As to `COc1cc(C)ncc1-c1nccc2[nH]c(=O)c(-c3nc4c(C)nc(Cl)cc4[nH]3)cc12` [Example 59, 3-(6-chloro-4-methyl-1H-imidazo[4,5-c]pyridin-2-yl)-5-(4-methoxy-6-methylpyridin-3-yl)-1,6-naphthyridin-2(1H)-one], the pIC50 on human SMG1 enzyme is 9.28. Also, in assay [1], the negative logarithm of the EC50 (pEC50) is 7.39.

Turning to `CCc1nc(Cl)cc2[nH]c(-c3cc4c(-c5cnc(C)cc5OC)nccc4[nH]c3=O)nc12` [Example 60, 3-(6-chloro-4-ethyl-1H-imidazo[4,5-c]pyridin-2-yl)-5-(4-methoxy-6-methylpyridin-3-yl)-1,6-naphthyridin-2(1H)-one], at human SMG1 enzyme, the pIC50 is 9.15. For the same compound, the pEC50 in assay [1] is 8.24.

Take `COc1cc(C2CC2)ncc1-c1nccc2[nH]c(=O)c(-c3nc4cnc(Cl)cc4[nH]3)cc12` [Example 62, 3-(6-chloro-1H-imidazo[4,5-c]pyridin-2-yl)-5-(6-cyclopropyl-4-methoxypyridin-3-yl)-1,6-naphthyridin-2(1H)-one]: the pIC50 at human SMG1 enzyme is 9.02. For the same compound, the pEC50 in assay [1] was 7.80.

Take `COc1cc(C(F)F)ncc1-c1nccc2[nH]c(=O)c(-c3nc4c(C)nc(Cl)cc4[nH]3)cc12` [Example 63, 3-(6-chloro-4-methyl-1H-imidazo[4,5-c]pyridin-2-yl)-5-[6-(difluoromethyl)-4-methoxypyridin-3-yl]-1,6-naphthyridin-2(1H)-one]: at human SMG1 enzyme, the pIC50 is 9.17. Moreover, the pEC50 in assay [1] is 7.85.

The pIC50 is the negative decadic logarithm of the IC50, by convention in mol/L. In general, pEC50 refers to the EC50 on a negative log10 scale, so that one unit is a factor of ten.
